The target of one experiment is T1, human recombinant GR (Homo sapiens, UniProt P04150).
T1 construct: purchased PanVera P2812
T1 sequence (P04150 1-777): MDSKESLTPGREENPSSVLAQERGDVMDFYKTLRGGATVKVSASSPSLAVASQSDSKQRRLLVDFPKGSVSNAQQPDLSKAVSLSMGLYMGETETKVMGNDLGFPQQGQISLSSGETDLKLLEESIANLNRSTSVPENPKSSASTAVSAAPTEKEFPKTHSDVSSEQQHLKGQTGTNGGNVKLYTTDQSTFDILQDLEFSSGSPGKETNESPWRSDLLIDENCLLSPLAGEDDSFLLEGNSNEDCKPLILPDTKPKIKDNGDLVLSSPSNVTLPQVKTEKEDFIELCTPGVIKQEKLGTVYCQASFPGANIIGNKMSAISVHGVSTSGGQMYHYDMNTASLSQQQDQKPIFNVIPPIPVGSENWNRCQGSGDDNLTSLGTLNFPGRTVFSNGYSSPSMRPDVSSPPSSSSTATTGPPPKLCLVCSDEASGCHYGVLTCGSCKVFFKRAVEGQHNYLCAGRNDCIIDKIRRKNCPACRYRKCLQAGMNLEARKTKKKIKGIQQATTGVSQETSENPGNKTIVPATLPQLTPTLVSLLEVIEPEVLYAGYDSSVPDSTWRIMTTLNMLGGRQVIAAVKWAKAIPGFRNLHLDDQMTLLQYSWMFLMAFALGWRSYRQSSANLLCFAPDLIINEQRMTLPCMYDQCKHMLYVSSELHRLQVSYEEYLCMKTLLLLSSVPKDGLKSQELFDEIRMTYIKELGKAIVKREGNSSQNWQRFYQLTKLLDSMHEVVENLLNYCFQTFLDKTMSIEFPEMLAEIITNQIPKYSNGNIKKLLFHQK
Briefly: Human Glucocorticoid Receptor (GR) Fluorescence Polarisation (FP) Binding Assay. The note with it: Ki from IC50 by ligand depletion correction; displacement of Fluorome GS Red. The method, then:
The following is a description of a FP assay for measuring compound inhibition of labelled glucocorticoid binding to the human recombinant GR.
The binding affinity of test compounds was determined using a FP binding assay using human recombinant GR (PanVera P2812) and a fluorescent labelled glucocorticoid ligand (Fluorome GS Red) (PanVera P2894). The presence of inhibitors prevents the formation of a GS Red/GR complex resulting in a decrease in the measured polarisation value. The change in polarisation value in the presence of test compounds is used to calculate the binding affinity of the compound for GR.
This assay was performed in 384 well, black, round-bottom, polypropylene micro titre plates in a final volume of 20 μl. The assay contained 5 μl 1 nM GR (final concentration), 5 μl 0.5 nM Fluorome GS Red (final concentration) in the presence of 10p test compounds. Positive control wells (high polarisation) receive, 10 μl 2% (v:v) DMSO vehicle (1% (v/v) final concentration)+5 μl 1 nM GR and 5 μl 0.5 nM Fluorome GS Red. […] Assay blank background wells (used for normalisation) receive 15 μl 1×GS screening buffer+5 μl GR.
For the IC50 determination (concentration of compound that displaces 50% of the bound GS Red), compounds were tested at eight different concentrations in duplicate in two independently performed experiments. Compounds were prepared as solubilised solids at 10 mM in DMSO. On the day of assay, an 8 point half-log serial dilution (55 μl DMSO+25 μl compound solution) was prepared. A 1:50 dilution (1 μl compound solution+49 μl 1×GR screening buffer) was prepared for each compound. The compounds were prepared at 2× final assay concentration.
The plates were mixed and incubated for 4 hour at room temperature. FP was measured using an Envision Excite plate reader with 535 nm excitation and 590 nm emission interference filters.
Milli-polarisation (mP) values were calculated using the below equation: mP=1000*(S−G*P)/(S+G*P) where S and P are assay blank background subtracted fluorescence units, G=G-factor (1.07).
Compound IC50 values were calculated by plotting a [compound] v. % inhibition curve and fitting the data to a 4-parameter logistic fit equation.
10×GR screening buffer (100 mM potassium phosphate pH 7.4, 200 mM Na2MoO4, 1 mM EDTA, 20% (v/v) DMSO). To prepare 1×GR screening buffer, combine 1 ml 10×GR screening buffer (PanVera P2814)+1 ml stabilising peptide (PanVera P2815)+7.95 ml 4° C. MQ water. Add 50p 1M DTT, vortex and place on ice until use.
On the technique in general: In fluorescence polarisation assays a small probe gives low polarisation when free and higher when bound to something large.

For a further experiment, the target named is T2, glucocorticoid receptor (Homo sapiens, UniProt P04150).
T2 construct: endogenous in cells; host or cells: HepG2
T2 sequence (P04150 1-777): T1 sequence (P04150 1-777)
The experiment in a line: HepG2 Tyrosine Aminotransferase (TAT) Assay. Format: cell-based. The protocol: Glucocorticoid mediated activation of TAT occurs by transactivation of glucocorticoid response elements in the TAT promoter by glucocorticoid receptor-agonist complex.
HepG2 cells were cultured using MEME media supplemented with 10% (v/v) foetal bovine serum; 2 mM L-glutamine and 1% (v/v) NEAA at 37° C., 5%/95% (v/v) CO2/air.
Compounds were serially half log diluted in 100% (v/v) dimethylsulphoxide from a 10 mM stock.
HepG2 cells were then lysed with 30 μl of cell lysis buffer containing a protease inhibitor cocktail for 15 minutes at 4° C. […] After 2 hours incubation at 37° C. the reaction was terminated by the addition of 15 μl of 10 M aqueous potassium hydroxide solution, and the plates incubated for a further 30 minutes at 37° C.
[compound] and fitting the data to a 4 parameter logistic equation.

Bounds are passed on as bounds.

By Ki is commonly meant a dissociation constant, usually derived from enzyme kinetics or from competition with a known ligand. For the molecule `O=C(c1ccccn1)[C@]12Cc3cnn(-c4ccc(F)cc4)c3C[C@@H]1CCN(S(=O)(=O)c1ccc(C(F)(F)F)cc1)C2` [Example 1A, ((4aR,8aS)-1-(4-fluorophenyl)-6-((4-(trifluoromethyl)phenyl)sulfonyl)-4,4a,5,6,7,8,8a,9-octahydro-1H-pyrazolo[3,4-g]isoquinolin-4a-yl)(pyridin-2-yl)methanone], the figures for the Ki at human recombinant GR and at glucocorticoid receptor were 0.5 to 1 nM and 20 to 100 nM, respectively.
The corresponding values for `O=C(c1ccccn1)[C@]12Cc3cnn(-c4ccc(F)cc4)c3C[C@@H]1CCN(S(=O)(=O)c1ccc(Cl)c(Cl)c1)C2` [Example 1B, ((4aR,8aS)-6-((3,4-dichlorophenyl)sulfonyl)-1-(4-fluorophenyl)-4,4a,5,6,7,8,8a,9-octahydro-1H-pyrazolo[3,4-g]isoquinolin-4a-yl)(pyridin-2-yl)methanone] are > 1 nM and 20 to 100 nM.
`O=C(c1ccccn1)[C@]12Cc3cnn(-c4ccc(F)cc4)c3C[C@@H]1CCN(S(=O)(=O)c1ccc(F)c(F)c1)C2` [Example 1C, ((4aR,8aS)-6-((3,4-difluorophenyl)sulfonyl)-1-(4-fluorophenyl)-4,4a,5,6,7,8,8a,9-octahydro-1H-pyrazolo[3,4-g]isoquinolin-4a-yl)(pyridin-2-yl)methanone]: the values for the Ki on human recombinant GR and on glucocorticoid receptor were > 1 nM and 20 to 100 nM, respectively.
As to `CCCn1ncc(S(=O)(=O)N2CC[C@H]3Cc4c(cnn4-c4ccc(F)cc4)C[C@]3(C(=O)c3ccccn3)C2)n1` [Example 2A, ((4aR,8aS)-1-(4-fluorophenyl)-6-((2-propyl-2H-1,2,3-triazol-4-yl)sulfonyl)-4,4a,5,6,7,8,8a,9-octahydro-1H-pyrazolo[3,4-g]isoquinolin-4a-yl)(pyridin-2-yl)methanone], the Ki was < 0.5 nM on human recombinant GR and < 20 nM on glucocorticoid receptor.
Take `CC(C)n1cc(S(=O)(=O)N2CC[C@H]3Cc4c(cnn4-c4ccc(F)cc4)C[C@]3(C(=O)c3ccccn3)C2)cn1` [Example 2AA, ((4aR,8aS)-1-(4-fluorophenyl)-6-((1-isopropyl-1H-pyrazol-4-yl)sulfonyl)-4,4a,5,6,7,8,8a,9-octahydro-1H-pyrazolo[3,4-g]isoquinolin-4a-yl)(pyridin-2-yl)methanone]: the Ki is < 0.5 nM on human recombinant GR and 20 to 100 nM at glucocorticoid receptor.
As for `CCn1ncc(S(=O)(=O)N2CC[C@H]3Cc4c(cnn4-c4ccc(F)cc4)C[C@]3(C(=O)c3ccccn3)C2)n1` [Example 2AB, ((4aR,8aS)-6-((2-ethyl-2H-1,2,3-triazol-4-yl)sulfonyl)-1-(4-fluorophenyl)-4,4a,5,6,7,8,8a,9-octahydro-1H-pyrazolo[3,4-g]isoquinolin-4a-yl)(pyridin-2-yl)methanone], the Ki on human recombinant GR was < 0.5 nM; at glucocorticoid receptor it was 20 to 100 nM.
Regarding `Cn1ncc(S(=O)(=O)N2CC[C@H]3Cc4c(cnn4-c4ccc(F)cc4)C[C@]3(C(=O)c3ccccn3)C2)n1` [Example 2AC, ((4aR,8aS)-1-(4-fluorophenyl)-6-((2-methyl-2H-1,2,3-triazol-4-yl)sulfonyl)-4,4a,5,6,7,8,8a,9-octahydro-1H-pyrazolo[3,4-g]isoquinolin-4a-yl)(pyridin-2-yl)methanone], the Ki at human recombinant GR was > 1 nM; on glucocorticoid receptor, 20 to 100 nM.
Taken in the same sequence, the figures for `CC(C)n1ncc(S(=O)(=O)N2CC[C@H]3Cc4c(cnn4-c4ccc(F)cc4)C[C@]3(C(=O)c3cc(C(F)(F)F)ccn3)C2)n1` [Example 2AD, ((4aR,8aS)-1-(4-fluorophenyl)-6-((2-isopropyl-2H-1,2,3-triazol-4-yl)sulfonyl)-4,4a,5,6,7,8,8a,9-octahydro-1H-pyrazolo[3,4-g]isoquinolin-4a-yl)(4-(trifluoromethyl)pyridin-2-yl)methanone] were < 0.5 nM and < 20 nM.
As for `O=C(c1cc(C(F)(F)F)ccn1)[C@]12Cc3cnn(-c4ccc(F)cc4)c3C[C@@H]1CCN(S(=O)(=O)c1cn[nH]n1)C2` [Example 2AE, ((4aR,8aS)-6-((2H-1,2,3-triazol-4-yl)sulfonyl)-1-(4-fluorophenyl)-4,4a,5,6,7,8,8a,9-octahydro-1H-pyrazolo[3,4-g]isoquinolin-4a-yl)(4-(trifluoromethyl)pyridin-2-yl)methanone], the Ki on human recombinant GR is > 1 nM; on glucocorticoid receptor it was > 100 nM.
Taken in the same sequence, the figures for `CC(C)n1cc(S(=O)(=O)N2CC[C@H]3Cc4c(cnn4-c4ccc(F)cc4)C[C@]3(C(=O)c3ccccn3)C2)nn1` [Example 2AF, ((4aR,8aS)-1-(4-fluorophenyl)-6-((1-isopropyl-1H-1,2,3-triazol-4-yl)sulfonyl)-4,4a,5,6,7,8,8a,9-octahydro-1H-pyrazolo[3,4-g]isoquinolin-4a-yl)(pyridin-2-yl)methanone] were > 1 nM and 20 to 100 nM.
The corresponding values for `O=C(c1nccs1)[C@]12Cc3cnn(-c4ccc(F)cc4)c3C[C@@H]1CCN(S(=O)(=O)c1cccc(C(F)(F)F)n1)C2` [Example 2AG, ((4aR,8aS)-1-(4-fluorophenyl)-6-((6-(trifluoromethyl)pyridin-2-yl)sulfonyl)-4,4a,5,6,7,8,8a,9-octahydro-1H-pyrazolo[3,4-g]isoquinolin-4a-yl)(thiazol-2-yl)methanone] are 0.5 to 1 nM and 20 to 100 nM.
Taken in the same sequence, the figures for `O=C(c1cscn1)[C@]12Cc3cnn(-c4ccc(F)cc4)c3C[C@@H]1CCN(S(=O)(=O)c1cccc(C(F)(F)F)n1)C2` [Example 2AH, ((4aR,8aS)-1-(4-fluorophenyl)-6-((6-(trifluoromethyl)pyridin-2-yl)sulfonyl)-4,4a,5,6,7,8,8a,9-octahydro-1H-pyrazolo[3,4-g]isoquinolin-4a-yl)(thiazol-4-yl)methanone] were 0.5 to 1 nM and < 20 nM.
On to `Cn1ncc(S(=O)(=O)N2CC[C@H]3Cc4c(cnn4-c4ccc(F)cc4)C[C@]3(C(=O)c3cscn3)C2)n1` [Example 2AI, ((4aR,8aS)-1-(4-fluorophenyl)-6-((2-methyl-2H-1,2,3-triazol-4-yl)sulfonyl)-4,4a,5,6,7,8,8a,9-octahydro-1H-pyrazolo[3,4-g]isoquinolin-4a-yl)(thiazol-4-yl)methanone], for which the Ki is > 1 nM on human recombinant GR and 20 to 100 nM at glucocorticoid receptor.
As to `CCn1ncc(S(=O)(=O)N2CC[C@H]3Cc4c(cnn4-c4ccc(F)cc4)C[C@]3(C(=O)c3cscn3)C2)n1` [Example 2AK, ((4aR,8aS)-6-((2-ethyl-2H-1,2,3-triazol-4-yl)sulfonyl)-1-(4-fluorophenyl)-4,4a,5,6,7,8,8a,9-octahydro-1H-pyrazolo[3,4-g]isoquinolin-4a-yl)(thiazol-4-yl)methanone], the Ki on glucocorticoid receptor was < 20 nM.
